Columns and labels:
[1] = Oral bioavailability in rat; format: ADME, organism-based; details: in vivo
Insulin receptor = Insulin receptor (Homo sapiens, UniProt P06213); test: Inhibition of insulin receptor
[2] = target: ALK tyrosine kinase receptor (Homo sapiens, UniProt Q9UM73); test: Inhibition of ALK
Chain of ALK tyrosine kinase receptor (Q9UM73 whole entry): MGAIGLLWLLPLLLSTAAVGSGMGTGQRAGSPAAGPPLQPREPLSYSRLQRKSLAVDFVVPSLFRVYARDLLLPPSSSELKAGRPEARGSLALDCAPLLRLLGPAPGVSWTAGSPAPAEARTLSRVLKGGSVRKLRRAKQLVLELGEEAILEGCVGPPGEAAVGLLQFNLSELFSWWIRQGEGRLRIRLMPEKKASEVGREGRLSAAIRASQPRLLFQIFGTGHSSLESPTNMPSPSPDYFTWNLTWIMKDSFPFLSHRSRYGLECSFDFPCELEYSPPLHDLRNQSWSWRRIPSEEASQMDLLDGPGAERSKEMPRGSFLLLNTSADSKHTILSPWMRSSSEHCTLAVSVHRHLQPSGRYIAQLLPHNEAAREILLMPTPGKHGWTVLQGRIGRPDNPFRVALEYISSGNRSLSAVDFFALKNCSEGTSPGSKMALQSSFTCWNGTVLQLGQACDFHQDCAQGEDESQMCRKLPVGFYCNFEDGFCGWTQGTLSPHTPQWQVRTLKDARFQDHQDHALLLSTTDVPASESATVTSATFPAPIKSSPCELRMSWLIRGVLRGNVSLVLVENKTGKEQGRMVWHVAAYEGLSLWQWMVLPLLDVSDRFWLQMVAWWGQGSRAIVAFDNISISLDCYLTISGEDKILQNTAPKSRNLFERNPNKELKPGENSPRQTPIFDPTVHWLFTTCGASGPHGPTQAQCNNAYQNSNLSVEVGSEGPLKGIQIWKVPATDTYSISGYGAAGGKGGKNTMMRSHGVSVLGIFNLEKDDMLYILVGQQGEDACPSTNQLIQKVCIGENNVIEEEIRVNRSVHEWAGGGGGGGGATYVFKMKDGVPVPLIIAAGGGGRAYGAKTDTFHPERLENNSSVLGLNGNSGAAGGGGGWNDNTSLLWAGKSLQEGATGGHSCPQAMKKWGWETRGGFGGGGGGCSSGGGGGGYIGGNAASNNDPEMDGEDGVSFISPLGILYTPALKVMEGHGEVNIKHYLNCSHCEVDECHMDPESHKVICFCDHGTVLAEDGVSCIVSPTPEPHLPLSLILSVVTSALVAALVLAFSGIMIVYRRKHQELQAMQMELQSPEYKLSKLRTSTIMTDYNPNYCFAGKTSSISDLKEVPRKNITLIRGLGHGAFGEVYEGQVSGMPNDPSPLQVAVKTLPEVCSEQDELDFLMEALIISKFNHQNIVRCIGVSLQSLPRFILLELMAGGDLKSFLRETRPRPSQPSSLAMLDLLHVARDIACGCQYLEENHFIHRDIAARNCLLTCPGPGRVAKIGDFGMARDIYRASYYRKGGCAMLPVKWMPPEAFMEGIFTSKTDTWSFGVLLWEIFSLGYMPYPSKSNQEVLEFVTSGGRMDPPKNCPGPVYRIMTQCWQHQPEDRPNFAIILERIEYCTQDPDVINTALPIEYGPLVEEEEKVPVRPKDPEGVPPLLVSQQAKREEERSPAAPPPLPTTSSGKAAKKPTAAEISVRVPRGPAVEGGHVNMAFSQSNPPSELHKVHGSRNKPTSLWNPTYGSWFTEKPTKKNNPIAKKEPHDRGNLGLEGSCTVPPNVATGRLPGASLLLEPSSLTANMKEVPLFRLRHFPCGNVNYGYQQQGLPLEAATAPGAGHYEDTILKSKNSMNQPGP

Chain of Insulin receptor (P06213 28-758 limits assumed): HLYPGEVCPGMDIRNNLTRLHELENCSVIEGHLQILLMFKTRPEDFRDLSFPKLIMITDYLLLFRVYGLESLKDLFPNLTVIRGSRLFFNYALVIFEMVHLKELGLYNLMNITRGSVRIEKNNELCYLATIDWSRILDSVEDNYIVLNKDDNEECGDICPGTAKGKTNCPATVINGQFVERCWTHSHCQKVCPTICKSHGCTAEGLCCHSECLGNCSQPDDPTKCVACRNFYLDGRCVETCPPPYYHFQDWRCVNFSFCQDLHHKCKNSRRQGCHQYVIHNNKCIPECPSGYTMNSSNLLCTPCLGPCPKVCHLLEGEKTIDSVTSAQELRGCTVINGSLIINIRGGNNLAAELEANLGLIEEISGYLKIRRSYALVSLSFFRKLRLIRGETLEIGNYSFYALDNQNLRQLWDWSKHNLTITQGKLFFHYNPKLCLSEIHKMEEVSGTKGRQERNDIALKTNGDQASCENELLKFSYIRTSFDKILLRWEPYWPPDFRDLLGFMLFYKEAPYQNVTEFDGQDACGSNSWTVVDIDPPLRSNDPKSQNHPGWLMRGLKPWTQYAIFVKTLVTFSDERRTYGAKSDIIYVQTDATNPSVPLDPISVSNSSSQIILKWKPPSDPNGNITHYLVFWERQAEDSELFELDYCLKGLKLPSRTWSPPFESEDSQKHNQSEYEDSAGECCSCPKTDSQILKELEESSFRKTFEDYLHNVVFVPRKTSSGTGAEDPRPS
Chain of Insulin receptor (P06213 763-1382 limits assumed): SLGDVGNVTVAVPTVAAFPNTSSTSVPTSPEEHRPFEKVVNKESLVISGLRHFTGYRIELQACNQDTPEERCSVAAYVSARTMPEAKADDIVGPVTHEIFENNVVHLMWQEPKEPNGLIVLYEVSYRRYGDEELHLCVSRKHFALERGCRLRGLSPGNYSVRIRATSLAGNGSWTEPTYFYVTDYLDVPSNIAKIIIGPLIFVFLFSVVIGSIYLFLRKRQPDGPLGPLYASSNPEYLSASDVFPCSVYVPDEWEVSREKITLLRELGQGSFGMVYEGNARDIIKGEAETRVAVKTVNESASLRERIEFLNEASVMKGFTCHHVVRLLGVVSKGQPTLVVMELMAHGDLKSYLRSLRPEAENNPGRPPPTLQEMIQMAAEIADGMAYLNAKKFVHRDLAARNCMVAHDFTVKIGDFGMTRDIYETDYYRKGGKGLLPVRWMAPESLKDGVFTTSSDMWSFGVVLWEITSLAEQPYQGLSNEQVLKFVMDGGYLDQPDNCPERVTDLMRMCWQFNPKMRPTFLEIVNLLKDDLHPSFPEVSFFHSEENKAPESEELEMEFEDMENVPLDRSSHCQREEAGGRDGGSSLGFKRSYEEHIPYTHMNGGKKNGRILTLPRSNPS

bioavailability [1] [%] | IC50 (Insulin receptor) [nM] | IC50 [2] [nM] | SMILES
– | 34 | – | CCN1C(=O)CCCc2cc(Nc3ncc(Cl)c(Nc4ccccc4C(=O)NC)n3)c(OC)cc21
– | 12 | – | CCN1C(=O)CCCc2cc(Nc3ncc(Cl)c(Nc4ccccc4S(=O)(=O)C(C)C)n3)c(OC)cc21
– | 37 | – | CCN1C(=O)CCCc2cc(Nc3ncc(Cl)c(Nc4ccccc4S(=O)(=O)N(C)C)n3)c(OC)cc21
– | 32 | – | CCN1C(=O)CCCc2c1ccc(Nc1ncc(Cl)c(Nc3ccccc3S(=O)(=O)C(C)C)n1)c2OC
– | 71 | – | CCN1C(=O)CCCc2c1ccc(Nc1ncc(Cl)c(Nc3ccccc3S(=O)(=O)N(C)C)n1)c2OC

Further lines, the compound ahead of its results:

SMILES | bioavailability [1] [%] | IC50 (Insulin receptor) [nM] | IC50 [2] [nM]
CNC(=O)c1ccccc1Nc1nc(Nc2ccc3c(c2)CCCC(=O)N3C)ncc1Cl | 9 | – | –
CN1C(=O)CCCc2cc(Nc3ncc(Cl)c(N[C@H]4[C@@H](C(N)=O)[C@@H]5C=C[C@H]4C5)n3)ccc21 (racemic) | 13 | 91 | –
CCN1C(=O)CCCc2c1ccc(Nc1ncc(Cl)c(Nc3ccccc3C(=O)NC)n1)c2OC | – | 215 | –
CCN1C(=O)CCCc2cc(Nc3ncc(Cl)c(N[C@H]4[C@@H](C(N)=O)[C@@H]5C=C[C@H]4C5)n3)c(OC)cc21 | – | 89 | –
CN1C(=O)CCCc2cc(Nc3ncc(Cl)c(N[C@@H]4CCCC[C@@H]4C(N)=O)n3)ccc21 (racemic) | – | 319 | –
CN1C(=O)CCCc2cc(Nc3ncc(Cl)c(N[C@@H]4CCCC[C@H]4C(N)=O)n3)ccc21 (racemic) | – | 2010 | –
CNS(=O)(=O)c1ccccc1Nc1nc(Nc2ccc3c(c2)CCCC(=O)N3C)ncc1Cl | 11 | 10 | –
CNC(=O)c1cccc(Nc2nc(Nc3ccc4c(c3)CCCC(=O)N4C)ncc2Cl)c1 | – | 247 | 568

From ChEMBL document CHEMBL2040771, “Discovery of a potent inhibitor of anaplastic lymphoma kinase with in vivo antitumor activity” (ACS Med Chem Lett, 2010)
